The results in this text go back to paper PMC6691788, “Design and synthesis of phthalazine-based compounds as potent anticancer agents with potential antiangiogenic activity via VEGFR-2 inhibition” (Journal of Enzyme Inhibition and Medicinal Chemistry, 2019).

For one assay, the system named is OVCAR-4. As to the kind of experiment: NCI 60 cell panel SRB screen. The assay is classed as cell-based. The note with it: Homo sapiens; OVCAR-4, single dose 10 μM; read-out: percent cell growth promotion.
Another assay relates to HCT-15. As to the kind of experiment: NCI 60 cell panel SRB screen. Format: cell-based. Conditions: Homo sapiens; HCT-15, single dose 10 μM; read-out: percent cell growth promotion.
The next assay concerns SNB-75. As to the kind of experiment: NCI 60 cell panel SRB screen. The assay is classed as cell-based. The note with it: Homo sapiens; SNB-75, single dose 10 μM; read-out: percent cell growth promotion.
The subject of a further assay is A549/ATCC. As to the kind of experiment: NCI 60 cell panel SRB screen. The assay is classed as cell-based. Conditions: Homo sapiens, single dose 10 μM, read-out: percent cell growth promotion.
Another assay deals with K-562. Description: NCI 60 cell panel SRB screen. Format: cell-based. The note with it: Homo sapiens, K562; K-562, single dose 10 μM; read-out: percent cell growth promotion.
For the next assay, the system named is full NCI 60 cell panel. Description: NCI 60 cell panel SRB screen, whole panel. Format: cell-based, human. The note with it: for activity at 10 µM: Homo sapiens, 60 cell, mean over the panel, single dose 10 μM, read-out: Mean percent cell growth promotion; for cell growth inhibition, in words: single dose 10 µM. The text has this: Aiming to evaluate the general antitumour activity of the synthesised phthalazines, the structures of the final compounds were submitted to National Cancer Institute “NCI” (www.dtp.nci.nih.gov), Bethesda, Maryland, USA. In vitro NCI anticancer screening involves two-stage process, the first stage started with the evaluation of the selected candidates against the full NCI 60 cell lines panel representing leukaemia, non-small cell lung cancer, melanoma, colon, CNS, breast, ovarian, renal and prostate cancers at a single dose of 10 µM. NCI selection is based on degree of structure variation and application of computer modelling techniques to prioritise compounds based on their ability to add diversity to the NCI small molecule compound collection.
Eight compounds (6b, 6e, 7b, 13a, 13c, 16a, 16d and 17a) were selected by NCI for further 5 log dose screening against full NCI 60 cell panel. All the 60 cell lines, representing nine tumour subpanels (leukaemia, non-small cell lung cancer, colon cancer, CNS cancer, prostate cancer, melanoma, ovarian cancer, renal cancer and breast cancer) which were incubated at five different concentrations (0.01, 0.1, 1, 10 and 100 µM) of each of the test compounds. The outcomes were used to create log concentration vs % growth inhibition curves, then three response parameters (GI50, TGI and LC50) were calculated for each cell line, (Tables S4 and S5 in Supplementary material).
The human tumor cell lines of the cancer-screening panel were grown in RPMI 1640 medium containing 5% fetal bovine serum and […] L-glutamine. For a typical screening experiment, cells are inoculated into 96 well microtiter plates in 100 ml at plating densities ranging from 5000 to 40,000 cells/well depending on the doubling time of individual cell lines. After cell inoculation, the microtiter plates are incubated at 37 °C, 5% CO2, 95% air and 100%
relative humidity for 24 h prior to addition of experimental drugs. After 24 h, two plates of each cell line are fixed in situ with TCA, to represent a measurement of the cell population for each cell line at the time of drug addition (Tz). Experimental drugs are dissolved in dimethyl sulfoxide at 400-fold the desired final maximum test concentration and stored frozen prior to use. At the time of drug addition, an aliquot of frozen concentrate is thawed and diluted to twice the desired final maximum test concentration with complete medium containing […] Gentamicin. Additional four, 10-fold or ½log serial dilutions are made to provide a total of five drug concentrations plus control. Aliquots of […] of these different drug dilutions are added to the appropriate microtiter wells already containing 100 ml of medium, resulting in the required final drug concentrations. Following drug addition, the plates are incubated for an additional 48 h at 37 °C, 5% CO2, 95% air, and 100% relative humidity. For adherent cells, the assay is terminated by the addition of cold TCA. Cells are fixed in situ by the gentle addition of […] of cold 50% (w/v) TCA (final concentration,10% TCA) and incubated for 60 min at 4 °C. The supernatant is discarded, and the plates are washed five times with tap water and air dried. Sulforhodamine B (SRB) solution (100 ml) at 0.4% (w/v) in 1% acetic acid is added to each well, and plates are incubated for 10 min at room temperature. After staining, unbound dye is removed by washing five times with 1% acetic acid and the plates are air dried. Bound stain is subsequently dissolved with 10 μM trizma base, and the absorbance is read on an automated plate reader at a wavelength of 515 nm. For suspension cells, the methodology is the same except that the assay is terminated by fixing settled cells at the bottom of the wells by gently adding […] of 80% TCA (final concentration, 16% TCA). […]

In the next assay the test system is HCC-2998. As to the kind of experiment: NCI 60 cell panel SRB screen. Format: cell-based. Conditions: Homo sapiens; HCC-2998, single dose 10 μM; read-out: percent cell growth promotion.
For another assay, the system named is T-47D. As to the kind of experiment: NCI 60 cell panel SRB screen. The assay is classed as cell-based. Conditions: Homo sapiens, T47D, read-out: percent cell growth promotion.
Another assay relates to OVCAR-3. Description: NCI 60 cell panel SRB screen. Format: cell-based. The note with it: Homo sapiens; OVCAR-3, single dose 10 μM; read-out: percent cell growth promotion.
A further assay has as its system MOLT-4. Description: NCI 60 cell panel SRB screen. The assay is classed as cell-based. Conditions: Homo sapiens; MOLT-4, single dose 10 μM; read-out: percent cell growth promotion.
Another assay relates to NCI-H522. Description: NCI 60 cell panel SRB screen. The assay is classed as cell-based. Conditions: Homo sapiens; NCI-H522, single dose 10 μM; read-out: percent cell growth promotion.
A further assay deals with TK-10. Description: NCI 60 cell panel SRB screen. Format: cell-based, human. Conditions: Homo sapiens; TK-10, single dose 10 μM; read-out: percent cell growth promotion.
The subject of the next assay is NCI-H226. Description: NCI 60 cell panel SRB screen. The assay is classed as cell-based. The note with it: Homo sapiens; NCI-H226, single dose 10 μM; read-out: percent cell growth promotion.
The subject of a further assay is SNB-19. As to the kind of experiment: NCI 60 cell panel SRB screen. The assay is classed as cell-based. Conditions: Homo sapiens; SNB-19, single dose 10 μM; read-out: percent cell growth promotion.
A further assay concerns CAKI-1. As to the kind of experiment: NCI 60 cell panel SRB screen. The note with it: Homo sapiens; CAKI-1, single dose 10 μM; read-out: percent cell growth promotion. Format: cell-based, human.
A further assay has as its system RXF 393. As to the kind of experiment: NCI 60 cell panel SRB screen. Format: cell-based. The note with it: Homo sapiens; RXF 393, single dose 10 μM; read-out: percent cell growth promotion.
A further assay concerns MDA-MB-435. Description: NCI 60 cell panel SRB screen. Format: cell-based. The note with it: Homo sapiens, MDA-MB-435, read-out: percent cell growth promotion.
The next assay has as its system OVCAR-5. As to the kind of experiment: NCI 60 cell panel SRB screen. Conditions: Homo sapiens; OVCAR-5, single dose 10 μM; read-out: percent cell growth promotion. Format: cell-based.

On to `O=C(Nc1ccc(Nc2nncc3ccccc23)cc1)c1ccc(Cl)cc1` [Compound 5b, 4-Chloro-N-(4-(phthalazin-1-ylamino)phenyl)benzamide], for which the activity at 10 µM in the assay with OVCAR-4 stood at 106%; in the assay with HCT-15 it was 109%; in the assay with SNB-75, 98.1%; in the assay on A549/ATCC, 101%; in the assay with K-562 it was 102%; in the assay with full NCI 60 cell panel, 101%. In addition, the activity at 10 µM in the assay on HCC-2998 was 113%; with T-47D it was 97.6%; with OVCAR-3, 101%; with MOLT-4, 97.3%; in the assay with NCI-H522, 96.8%; in the assay with TK-10, 116%. Moreover, the activity at 10 µM turned out to be 77.9% in the assay on NCI-H226; 104% in the assay on SNB-19; 94.6% in the assay with CAKI-1; 115% in the assay with RXF 393; 103% in the assay with MDA-MB-435. Also, the “cell growth inhibition, in words” value with full NCI 60 cell panel is “Neither of the biarylamides (5b, and 5d) nor the piperazines (8a, 8d, 8f, 8g, 8h and 8i) showed any significant cell line growth inhibition”.

Turning to `Cc1nnc(Nc2ccc(NC(=O)c3ccc(Cl)cc3)cc2)c2ccccc12` [Compound 5d, 4-Chloro-N-(4–(4-methylphthalazin-1-ylamino)phenyl)benzamide], the activity at 10 µM is 105% in the assay on OVCAR-4; 101% with HCT-15; 98.5% in the assay with OVCAR-5; 81.2% in the assay with SNB-75; 97.9% in the assay on A549/ATCC; 101% in the assay on K-562. For the same compound, the activity at 10 µM was determined as 93% with full NCI 60 cell panel; 125% in the assay with HCC-2998; 79.8% with T-47D; 93.3% in the assay on OVCAR-3; 83.5% in the assay with MOLT-4; 94.7% in the assay with NCI-H522. Moreover, the activity at 10 µM in the assay on TK-10 worked out at 109%; with NCI-H226, 76.3%; in the assay with SNB-19 it was 92%; in the assay on CAKI-1 it was 86.3%; with RXF 393, 98.7%; in the assay with MDA-MB-435 it was 102%. Also, in the assay with full NCI 60 cell panel, the “cell growth inhibition, in words” value is “Neither of the biarylamides (5b, and 5d) nor the piperazines (8a, 8d, 8f, 8g, 8h and 8i) showed any significant cell line growth inhibition”.

For `O=C(Nc1ccc(Cl)cc1)Nc1ccc(Oc2nnc(Cl)c3ccccc23)cc1` [Compound 13b, 1–(4-Chlorophenyl)-3–(4-(4-chlorophthalazin-1-yloxy)phenyl)urea], the activity at 10 µM was 72.1% in the assay on OVCAR-4; 94.1% with HCT-15; 113% with OVCAR-5; 74% in the assay with SNB-75; 78.2% with A549/ATCC; 93.2% in the assay with K-562. The activity at 10 µM turned out to be 88.7% in the assay on full NCI 60 cell panel; 115% in the assay on HCC-2998; 70.5% in the assay on T-47D; 85.4% in the assay on OVCAR-3; 52.5% with NCI-H522; 109% in the assay with TK-10. Further, the activity at 10 µM with NCI-H226 is 81.4%; in the assay on SNB-19 it was 103%; in the assay with CAKI-1 it was 99.1%; in the assay with RXF 393 it was 99.7%; in the assay with MDA-MB-435 it was 93.9%. Besides, the “cell growth inhibition, in words” value with full NCI 60 cell panel is on record as “did not show any significant cell line growth inhibition”.
